The test relates to M. tuberculosis H37Rv growth inhibition. Nature of the test: M. tuberculosis H37Rv growth inhibitors, H37Rv strain (AID 1626). The conditions noted are these: for IC90: measured here: IC90 against H37Rv; for CC50: measured here: Vero cell cytotoxicity.

The structures appear in SMILES notation.

`CC1=Nc2ccccc2/C1=C/c1sc(=N)n(-c2nccs2)c1O`: the IC50 (as a rule, the concentration at which inhibition is half-maximal) was less than 0.195 µM; the concentration for an effect of 90% (IC90) (usually the concentration at which the effect reaches the 90% level) was less than 0.195 µM; the CC50 – broadly, the concentration that lowers cell viability or growth by half – was determined as 14.3 µM.

With `CC(=O)c1ccc(NC(=O)c2cc(CC(C)C)on2)cc1`, the IC50 is 7.21 µM and the IC90 is 42.9 µM.

As for `CCC(=O)Nc1nc(-c2cc([N+](=O)[O-])cs2)cs1`, the IC50 was less than 0.195 µM and the IC90 was more than 100 µM.

Turning to `CCCc1nnc(NC(=O)c2c(O)c3cccc4c3n(c2=O)CCC4)s1`, the IC50 is less than 0.391 µM, the IC90 is less than 0.391 µM and the CC50 was 25.6 µM.

Turning to `Cc1[nH]n2c(=O)c3c(nc2c1-c1ccc(Cl)cc1)CCC3`, the IC50 is 13.3 µM, the IC90 is 31 µM and the CC50 was 19.6 µM.

Turning to `Cn1c(COc2cccc3ccccc23)nnc1SCC(=O)OC1CCCCC1`, the IC50 was 2.3 µM and the IC90 was 6.77 µM.

As for `O=C(COc1ccc2c(C(F)(F)F)cc(=O)oc2c1)NCc1cccs1`, the IC50 is 14.8 µM and the IC90 is more than 100 µM.

Regarding `O=C(COc1ccc(Nc2ccccc2)cc1)OCC(=O)N1CCCCC1`, the 50% inhibitory concentration (IC50) was 19.5 µM and the IC90 was more than 100 µM.

For `CN(C)CCCn1c(=O)n(CCc2ccccc2)c(=O)c2c3c(sc21)CCCCC3`, the IC50 was 11.6 µM, the IC90 is 12.9 µM and the CC50 was 18.1 µM.

As to `Cc1cc(C)n(-c2nc(NC(C)C)nc(NC(C)C)n2)n1`, the IC50 is 0.961 µM, the IC90 is 3.94 µM and the CC50 was more than 40 µM.

As to `Cc1ccc(S/C=C\C(=O)c2ccccc2)cc1`, the IC50 was 5.51 µM and the IC90 was 8.53 µM.

Turning to `O=C1N=C(N2CCOCC2)S/C1=C/c1ccc(-c2ccc(F)cc2)o1`, the IC90 is more than 100 µM.

The molecule `C=CCn1c(COc2ccc3c(c2)CCCC3)nnc1SCC(=O)Nc1cccc(SC)c1` yielded an IC90 of more than 100 µM.

As to `CN1CCN(c2ccccc2NC(=O)c2ccc(-c3ccc(Cl)cc3Cl)o2)CC1`, the IC50 was 65.2 µM, the IC90 came out at 82.8 µM and the CC50 is more than 40 µM.

Consider `COc1cc(CNc2ccc(N3CCN(C(C)=O)CC3)cc2)ccc1OCc1ccc(F)cc1`, for which the CC50 is more than 40 µM.

On to `Cc1nc(SCc2ccc(F)cc2)c2oc3ccccc3c2n1`, for which the IC50 is less than 0.195 µM and the IC90 is more than 100 µM.

For `CCCCOc1ccc(NC(=O)C2CC=CCC2C(=O)O)cc1` (configuration not stated), the IC50 is 75.7 µM and the IC90 was more than 100 µM.

As to `O=C(Nc1nc(NC(=O)c2ccco2)n(-c2ccccc2)n1)c1ccccc1`, the IC50 was 2.65 µM, the IC90 was determined as 6.79 µM and the CC50 is 8.86 µM.

For the molecule `COc1ccccc1Sc1nc(-c2ccccn2)ncc1OC`, the IC50 is 1.04 µM, the IC90 is more than 100 µM and the CC50 was 7.61 µM.

In the case of `COc1ccc(NCC(=O)Nc2ccccc2C#N)cc1Cl`, the IC50 was 97.8 µM and the IC90 is more than 100 µM.

`CC(C)c1ccc(NC(=O)COc2ccc(C3SCCS3)cc2)cc1` gave an IC90 of more than 100 µM.

On to `Cc1nn(-c2ccccc2)c2c1C(c1ccc(O)c(O)c1)N1C(=N2)C(Nc2ccccc2)=Nc2ccccc21` (configuration not stated), for which the IC50 is 1.5 µM, the IC90 is 2.11 µM and the CC50 came out at 8.02 µM.

On to `c1ccc(CN2CCC(N=C3NN=C(c4ccc5c(c4)OCCO5)CS3)CC2)cc1`, for which the IC50 is 18.2 µM, the IC90 came out at 21.6 µM and the CC50 is more than 40 µM.

As for `CCOC(=O)c1ccc(NC(=O)NS(=O)(=O)c2ccc(C)cc2)cc1`, the IC50 was 7.99 µM and the IC90 was more than 100 µM.

Take `Cc1coc2c1C(=O)C(=O)c1c-2ccc2c(C)cccc12`: the IC50 was 0.336 µM, the IC90 is 0.366 µM and the CC50 came out at 27.8 µM.

In the case of `COc1ccc2cc(-c3[nH]ncc3CN3CCCN(c4ccccc4)CC3)ccc2c1`, the IC50 was 9.35 µM, the IC90 stood at 15.4 µM and the CC50 is more than 40 µM.

`CCNc1nc(NCC)nc(-n2nc(C)cc2C)n1`: the IC50 is 5.04 µM and the IC90 turned out to be 18.4 µM.

Take `Nc1c2c(nc3ccc(Br)cc13)N(C1CCCCC1)CC2`: the IC50 was 8.28 µM, the IC90 amounted to 11.1 µM and the CC50 is more than 40 µM.

Take `COc1ccc(Nc2nc(-c3ccc4c(c3)NC(=O)CO4)cs2)cc1`: the IC50 is 10 µM, the concentration for an effect of 90% (IC90) was more than 100 µM and the CC50 was more than 40 µM.

For the molecule `CCc1ccc(NC(=O)c2cnc(N3CCN(c4ccccn4)CC3)c3ccccc23)cc1`, the half-maximal inhibitory concentration (IC50) is 0.444 µM, the IC90 was 5.71 µM and the CC50 was more than 40 µM.

For `Cc1ccc(-n2nnnc2SC(C)C(=O)Nc2ccc(Cl)cn2)cc1` (configuration not stated), the IC50 is 16.5 µM, the IC90 was 29.1 µM and the CC50 came out at 26.7 µM.

As to `OC(CNCC(c1ccc(Cl)cc1Cl)c1c[nH]c2ccccc12)c1ccccc1` (configuration not stated), the IC50 was 6.68 µM, the IC90 was found to be 10.3 µM and the CC50 was 11.2 µM.

Regarding `O=C(C[n+]1cc(-c2ccc(F)cc2)n2c1CCC2)N1c2ccccc2Sc2ccccc21`, the IC50 was 38.7 µM and the IC90 is more than 100 µM.

Take `Cc1nc(N2CCN(Cc3ccc(Cl)cc3)CC2)c2oc3ccccc3c2n1`: the IC50 was 15.7 µM, the IC90 came to 19.8 µM and the CC50 was more than 40 µM.

In the case of `O=C(Nc1ncc(Cc2ccccc2)s1)C1=NCCN1`, the IC50 is 11.6 µM, the IC90 was more than 100 µM and the CC50 was more than 40 µM.

`Cc1nc(SCc2ccccc2F)c2oc3ccccc3c2n1` registered an IC90 of more than 100 µM.

Turning to `O=C(OCC#CCSc1nnc(-c2ccc(Br)cc2)o1)c1cccs1`, the IC50 was less than 0.195 µM and the IC90 amounted to 2.44 µM.

`O=C(c1cc(COc2ccc(F)cc2Cl)on1)N1CCC(OCc2cccnc2)CC1` yielded an IC90 of more than 100 µM and a CC50 of 8.01 µM.

Molecule `CCc1ccccc1NC(=O)c1ccc([N+](=O)[O-])s1` registered an IC90 of more than 100 µM and a CC50 of more than 40 µM.

For `O=C(NCCc1ccc(Cl)cc1)c1ccc(CNc2c(N3CCOCC3)c(=O)c2=O)cc1`, the IC50 was 2.85 µM and the IC90 was 3.19 µM.

As to `CC(=O)c1ccccc1OCC(O)CN1CCN(C(c2ccccc2)c2ccccc2)CC1` (configuration not stated), the IC50 is 7.75 µM, the IC90 came out at 32.6 µM and the CC50 amounted to 33.1 µM.

Take `OC(c1cc(-c2ccc(Cl)cc2)nc2ccccc12)C1CCCCN1` (configuration not stated): the IC50 is 4.52 µM, the IC90 was 13.5 µM and the CC50 is 7.35 µM.

With `COc1ccc(OC(=O)CCc2c[nH]c3ccccc23)cc1`, the IC50 was 18.2 µM and the IC90 is more than 100 µM.

As to `O=C(CSc1ccncc1)Nc1ccc2ccccc2c1`, the half-inhibitory concentration (IC50) is 1.15 µM and the IC90 is more than 100 µM.

On to `CCc1ccc(C(=O)CSC2=C(C#N)C(c3ccco3)C(C(C)=O)=C(C)N2)cc1` (configuration not stated), for which the 50% inhibitory concentration (IC50) was 7.81 µM, the IC90 is 23.3 µM and the CC50 was more than 40 µM.

As to `CN1CCN(c2oc(COc3ccc(-c4ccccc4)cc3)nc2C#N)CC1`, the IC50 is 15.4 µM, the IC90 is 28.7 µM and the CC50 is more than 40 µM.

Regarding `COc1cc(-c2nnc(SCC(=O)OC3CCCCC3)o2)cc(OC)c1OC`, the IC50 is less than 0.195 µM and the IC90 came out at 1.78 µM.

Source of the values: PubChem BioAssay AID1626 (SRMLSC, 2009).
